Assay results from PMC12263422, “Cryo-EM structure of the human THIK-1 K2P K^+ channel reveals a lower Y gate regulated by lipids and anesthetics” (Nature Structural & Molecular Biology, 2025).
“And” between values parts separate entries of the source, which are not always exact repeats. Equal values may be shown once.

Target: T1, THIK-1 T237A (Homo sapiens, UniProt Q9HB14, T237A)
T1 construct: expressed in transfected cells; host or cells: Xenopus oocytes (mRNA injection)
T1 sequence (Q9HB14 1-408 T237A): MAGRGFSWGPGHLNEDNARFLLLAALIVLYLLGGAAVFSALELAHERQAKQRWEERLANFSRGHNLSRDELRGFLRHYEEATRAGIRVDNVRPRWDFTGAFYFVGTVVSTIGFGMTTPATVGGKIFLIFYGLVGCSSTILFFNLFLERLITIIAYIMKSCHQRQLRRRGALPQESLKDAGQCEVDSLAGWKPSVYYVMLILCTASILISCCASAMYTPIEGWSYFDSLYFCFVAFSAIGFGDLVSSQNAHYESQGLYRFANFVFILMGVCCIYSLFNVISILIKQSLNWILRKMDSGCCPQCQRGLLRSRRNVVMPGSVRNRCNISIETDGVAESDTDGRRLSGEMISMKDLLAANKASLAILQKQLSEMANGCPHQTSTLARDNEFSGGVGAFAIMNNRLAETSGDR
Assay: Inside-out excised patch recordings, oocytes, THIK-1 T237A mutant
Type: cell-based
Description: Human K2P13.1 THIK-1 (GenBank accession number: NM_022054) and human K2P12.1 THIK-2 (NM_022055.1) were used in this study. For functional expression studies, the respective K^+ channel subtype coding sequences were subcloned into the oocyte expression vector pSGEM or the dual-purpose expression vector pFAW[41] and verified by sequencing. All mutant channels were obtained by site-directed mutagenesis and verified by sequencing. To increase surface expression and macroscopic currents, measurements of THIK-2 channels used a mutated ER retention motif, (R11A R12A R14A R15A R16A; THIK-2*)[20]. Vector DNA was linearized with NheI or MluI, and mRNA was synthesized in vitro using the SP6 or T7 AmpliCap Max High Yield Message Maker Kit (Cellscript, USA) or HiScribe T7 ARCA mRNA Kit (New England Biolabs).
Two-electrode voltage–clamp (TEVC) studies were performed in Xenopus oocytes. All animal use conformed to the Guide for the Care and Use of Laboratory Animals (NIH Publication 85–23), and all experiments using Xenopus toads were approved by the local ethics panels. Oocytes were stored at 17 °C in ND96 recording solution composed of (in mM): 96 NaCl, 2 KCl, 1.8 CaCl2, 1 MgCl2, 5 HEPES (pH 7.5 adjusted with NaOH and HCl), supplemented with Na-pyruvate (275 mg L^–1), theophylline (90 mg L^–1) and gentamicin (50 mg L^–1). Oocytes were injected with 1 ng mRNA for WT or mutant channels, and were incubated for 24–48 h at 17 °C. Two-electrode voltage clamp recordings were then performed as previously described[42],[43]. For macroscopic patch–clamp measurements, oocytes were obtained as described above incubated at 17 °C in a solution containing (mM): 54 NaCl, 30 KCl, 2.4 NaHCO3, 0.82 MgSO4 ×7 H2O, 0.41 CaCl2, 0.33 Ca(NO3)2 ×4 H2O and 7.5 TRIS (pH 7.4 adjusted with NaOH and HCl) for 1–4 days before use. Excised patch recordings in inside-out configuration conditions were performed at room temperature. Patch pipettes were made from thick-walled borosilicate glass GB 200TF-8P (Science Products), had resistances of 0.2–0.5 MΩ (tip diameter, 10–25 µm) and filled with a pipette solution (in mM): 120 KCl, 10 HEPES and 3.6 CaCl2 (pH 7.4 adjusted with KOH and HCl). Intracellular bath solutions and compounds were applied to the cytoplasmic side of excised patches for the various K^+ channels through a gravity flow multi-barrel pipette system. The intracellular solution had the following composition (in mM): 120 KCl, 10 HEPES, 2 EGTA and 1 pyrophosphate (pH adjusted with KOH and HCl). Currents were recorded with an EPC10 amplifier (HEKA Electronics) and sampled at 10 kHz or higher, with filtering set to 3 kHz (–3 dB) or higher, as appropriate for sampling rate. For measurements of GPCR activation, whole-cell currents were recorded for THIK-1 in transiently transfected HEK-293 cells. Cells were stimulated by a ramp protocol between −100 and +60 mV (holding potential, −80 mV). The pipette solution was composed of (in mM): 140 KCl, 2 MgCl2, 1 CaCl2, 2.5 EGTA and 10 HEPES (pH 7.3 adjusted with KOH and HCl). The extracellular bath solution had the following composition (in mM): 135 NaCl, 5 KCl, 2 MgCl2, 2 CaCl2, 10 glucose and 10 HEPES pH (pH 7.3 adjusted with NaOH and HCl). Oxotremorine M (Oxo-M) was added to extracellular bath solution to obtain the final concentration. Single-channel currents were recorded with an Axopatch 200B amplifier through a Digidata 1440A digitizer (Molecular Devices). Data were filtered at 2 kHz and recorded at a 200-kHz sampling rate with the program Clampex (Molecular Devices). Pipette solution and bath solution for cell-attached recordings contained (in mM): 140 KCl, 2 MgCl2, 1 CaCl2 and 10 HEPES (pH 7.4 adjusted with KOH and HCl). For inside-out recordings, the bath solution contained (in mM): 140 KCl, 2 MgCl2, 1 CaCl2 and 10 HEPES (pH 7.2 adjusted with KOH and HCl). All experiments were conducted at room temperature. […]

FC(F)OC(Cl)C(F)(F)F (stereo not drawn) [Isoflurane, isoflurane]
Inhibition (%) (4.9 mM Isoflurane, T237A, individual recordings): 17.406% and 8.395% and 11.371% and 16.439% and 18.927% and 20.492% and 11.299%
inhibition at 242 µM (isoflurane 0.242 mM, THIK-1 T237A): 3.32%
inhibition at 485 µM (isoflurane 0.485 mM, THIK-1 T237A): 6.3%
inhibition at 2420 µM (isoflurane 2.42 mM, THIK-1 T237A): 10.5%
inhibition at 4850 µM (isoflurane 4.85 mM, THIK-1 T237A): 14.9%
inhibition at 24200 µM (isoflurane 24.2 mM, THIK-1 T237A): 41.2%

FC(F)(F)C(Cl)Br (stereo not drawn) [halothane]
Inhibition (%) (3.0 mM halothane, T237A, individual recordings): 33.289% and 24.219% and 32.586% and 20.723% and 17.184% and 21.968% and 14.425% and 17.317% and 20.857% and 12.818% and 13.953% and 26.198% and 19.691% and 2.253% and 19.772% and 18.717% and 25.052% and 20.656% and 33.770% and 18.734% and 25.692% and 28.421% and 33.333%
inhibition at 152 µM (halothane 0.152 mM, THIK-1 T237A): 2.14%
inhibition at 304 µM (halothane 0.304 mM, THIK-1 T237A): 5.74%
inhibition at 1520 µM (halothane 1.52 mM, THIK-1 T237A): 14%
inhibition at 3040 µM (halothane 3.04 mM, THIK-1 T237A): 21.8%
inhibition at 15200 µM (halothane 15.2 mM, THIK-1 T237A): 61.5%

CCCCC[N+](CCCCC)(CCCCC)CCCCC [TPenA, tetrapentylammonium]
IC50 (TPenA IC50, T237A mutant): 751 ± 69 µM
IC50 (TPenA IC50, THIK-1 T237A, individual recordings): 1130 µM and 808 µM and 597 µM and 535 µM and 580 µM and 782 µM and 1030 µM and 536 µM and 917 µM and 590 µM
IC50 (TPenA IC50, THIK-1 T237A, mean): 751 µM

FCOC(C(F)(F)F)C(F)(F)F [Sevoflurane, sevoflurane]
Inhibition (%) (0.24 mM Sevoflurane, T237A, individual recordings): 3.46% and 13.30% and 10.43% and 14.31% and 9.40% and 9.31%
inhibition at 240 µM (0.24 mM Sevoflurane, T237A, mean): 10%
inhibition at 23 µM (THIK-1 T237A, 0.023 mM sevoflurane): 2.46%
inhibition at 47 µM (THIK-1 T237A, 0.047 mM sevoflurane): 5.91%
inhibition at 468 µM (THIK-1 T237A, 0.468 mM sevoflurane): 21.7%
inhibition at 2340 µM (THIK-1 T237A, 2.34 mM sevoflurane): 65.6%
